# In patent US20250388605A1, “HETEROBIFUNCTIONAL COMPOUNDS AND METHODS OF TREATING DISEASE” (Halda Therapeutics OpCo, Inc., priority 2022, published 2025):
# Key:
# [1] = test system: T-Rex 293 cell line SC3 cells having increased expression of androgen receptor protein due to exposure to doxycycline; test: Cellular growth inhibition, T-Rex 293 SC3 cells with doxycycline (increased androgen receptor expression), CellTiter-Glo; assay type: cell-based; settings: T-Rex 293 SC3 cells with 10 ng/mL doxycycline (increased androgen receptor expression), 72 hours, CellTiter-Glo 2.0
# Summary of the method: (§1)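 Growth inhibition is measured in an inducible AR-expressing T-Rex 293 clone, SC3, cultured with or without 10 ng/mL doxycycline in hormone-depleted medium. Test compounds are applied for 72 hours. GI50 values derive from CellTiter-Glo 2.0 signal fitted by four-parameter regression.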
# VCaP cells = test: Cellular growth inhibition assay for VCaP cells, CellTiter-Glo; assay type: cell-based, human; settings: Homo sapiens, 72 hours
# Summary of the method: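 GI50 values come from four-parameter curve fits of luminescence data normalized to a zero baseline. Compound, in medium with 0.5% DMSO, was added one day after plating and left for 72 h before CellTiter-Glo 2.0 addition.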
# T47D cells = test: Cellular Growth Inhibition Assay for T47D Cells (CellTiter-Glo); assay type: cell-based, human; settings: Homo sapiens, 72 hours
# Method: Exemplary compounds were tested for ability to inhibit the proliferation of T47D cells. T47D cells are a commercially available human breast cancer cell line.
# T47D cells were purchased from American Type Cell Culture (ATCC Cat #HTB-133) and then seeded on poly-D-lysine coated, black clear-bottom 384-well plates at 3000/well in 25 μL Dulbecco's Modified Eagle Medium (DMEM) supplemented with 10% w/w Fetal bovine serum (FBS), 0.2 units/mL recombinant human insulin (Gibco Cat #12585014), and 1% w/w Pen-Strep. Pen-Strep is a commercially available mixture of penicillin G and streptomycin, which is used in mammalian cell culture media to prevent bacterial contamination. Dulbecco's Modified Eagle Medium (DMEM) supplemented with 10% w/w fetal bovine serum (FBS), 0.2 units/mL recombinant human insulin, and 1% w/w Pen-Strep is herein referred to as Treatment Medium. Following seeding of cells in the plates, the plates were spun at 300×g for 30 seconds, then equilibrated to room temperature for 30 minutes, and then deposited in a humidified tissue culture incubator maintained at 37° C. with 5% CO2.
# At 24 hours after seeding of the cells, dilutions of test compound were prepared in DMSO and dissolved in Treatment Medium, to achieve a final DMSO concentration of 0.5% w/w, thereby providing the Test Compound Solution. A 25 μL aliquot of the Test Compound Solution was added to cells in the well plates. An equal volume of a solution containing DMSO and Treatment Medium was used as a negative control. Following treatment of cells with Test Compound Solution or said equal volume of a solution containing DMSO and Treatment Medium, the plates were spun at 300×g for 30 seconds, and then left in an incubator for 72 hours.
# At the end of the treatment duration, cell viability was quantified with CellTiter-Glo 2.0 reagent (Promega Cat #G9243). For this purpose, plates were equilibrated to room temperature for 30 minutes, and then 25 μL of CellTiter-Glo 2.0 reagent was added to cells in the plate wells. Plates were then agitated on a shaker for two minutes at 500 rpm and subsequently incubated at room temperature for 10 minutes. Following incubation, the plates were spun at 3000×g for 30 seconds, then sealed with an optical adhesive cover, and luminescence readings were measured with an EnVision Plate Reader (Perkin Elmer).
# Data was normalized using zero luminescence for baseline. A four-parameter non-linear regression curve fit was applied to dose-response data in GraphPad Prism data analysis software to determine the half-maximal growth inhibitory concentration (GI50) for each test compound.
# [2] = test system: T-Rex 293 cell line SC3 cells lacking increased expression of androgen receptor protein; test: Cellular growth inhibition, T-Rex 293 SC3 cells without doxycycline (no increased androgen receptor expression), CellTiter-Glo; assay type: cell-based; settings: T-Rex 293 SC3 cells not exposed to doxycycline (no increased androgen receptor expression), 72 hours
# Summary of the method: as §1
GI50 (VCaP cells),GI50 (T47D cells),Compound,GI50 [1],GI50 [2]
< 500 nM,< 500 nM,CCS(=O)(=O)Nc1ccc(Oc2cccc(OC3CCN(c4ncc(C(=O)N[C@H]5C(C)(C)[C@H](Oc6ccc(C#N)c(Cl)c6)C5(C)C)cn4)CC3)c2)c(-c2cn(C)c(=O)c3[nH]ccc23)c1 [Compound I-24],< 500 nM,< 500 nM
< 500 nM,< 500 nM,CCS(=O)(=O)Nc1ccc(Oc2cccc(OCC3CCN(c4ncc(C(=O)N[C@H]5C(C)(C)[C@H](Oc6ccc(C#N)c(Cl)c6)C5(C)C)cn4)CC3)c2)c(-c2cn(C)c(=O)c3[nH]ccc23)c1 [Compound I-25],< 500 nM,< 500 nM
< 500 nM,< 500 nM,CCS(=O)(=O)Nc1ccc(Oc2cccc(OC3CN(c4ncc(C(=O)N[C@H]5C(C)(C)[C@H](Oc6ccc(C#N)c(Cl)c6)C5(C)C)cn4)C3)c2)c(-c2cn(C)c(=O)c3[nH]ccc23)c1 [Compound I-30],< 500 nM,< 500 nM
< 500 nM,< 500 nM,CCS(=O)(=O)Nc1ccc(Oc2cccc(N(C)C3CN(c4ncc(C(=O)N[C@H]5C(C)(C)[C@H](Oc6ccc(C#N)c(Cl)c6)C5(C)C)cn4)C3)c2)c(-c2cn(C)c(=O)c3[nH]ccc23)c1 [Compound I-31],500 to 1500 nM,< 500 nM
< 500 nM,500 to 1500 nM,CCS(=O)(=O)Nc1ccc(Oc2cccc(N3CCN(CC4CCN(c5ncc(C(=O)N[C@H]6C(C)(C)[C@H](Oc7ccc(C#N)c(Cl)c7)C6(C)C)cn5)CC4)CC3)c2)c(-c2cn(C)c(=O)c3[nH]ccc23)c1 [Compound I-37],< 500 nM,< 500 nM
< 500 nM,< 500 nM,CCS(=O)(=O)Nc1ccc(Oc2cccc(N3CCC(CC4CCN(c5ncc(C(=O)N[C@H]6C(C)(C)[C@H](Oc7ccc(C#N)c(Cl)c7)C6(C)C)cn5)CC4)C3)c2)c(-c2cn(C)c(=O)c3[nH]ccc23)c1 (stereo partly drawn) [Compound I-40],< 500 nM,> 3000 nM
< 500 nM,< 500 nM,CCS(=O)(=O)Nc1ccc(Oc2cccc(N3CCC(N(C)C4CCN(c5ncc(C(=O)N[C@H]6C(C)(C)[C@H](Oc7ccc(C#N)c(Cl)c7)C6(C)C)cn5)CC4)C3)c2)c(-c2cn(C)c(=O)c3[nH]ccc23)c1 (stereo partly drawn) [Compound I-41],< 500 nM,500 to 1500 nM
< 500 nM,< 500 nM,CCS(=O)(=O)Nc1ccc(Oc2cccc(N(C)C3CCN(C4CCN(c5ncc(C(=O)N[C@H]6C(C)(C)[C@H](Oc7ccc(C#N)c(Cl)c7)C6(C)C)cn5)CC4)C3)c2)c(-c2cn(C)c(=O)c3[nH]ccc23)c1 (stereo partly drawn) [Compound I-42],< 500 nM,< 500 nM
< 500 nM,< 500 nM,CCS(=O)(=O)Nc1ccc(Oc2cccc(OC3CCN(C4CCN(c5ncc(C(=O)N[C@H]6C(C)(C)[C@H](Oc7ccc(C#N)c(Cl)c7)C6(C)C)cn5)CC4)C3)c2)c(-c2cn(C)c(=O)c3[nH]ccc23)c1 (stereo partly drawn) [Compound I-43],< 500 nM,1500 to 3000 nM
< 500 nM,< 500 nM,"CC(=O)Nc1ccc(Oc2cccc(OCCOC3CCN(c4ncc(C(=O)N[C@H]5C(C)(C)[C@H](Oc6ccc(C#N)c(Cl)c6)C5(C)C)cn4)CC3)c2)c(-c2cn(C)c(=O)c3[nH]ccc23)c1 [Compound I-57, 2-(4-(2-(3-(4-acetamido-2-(6-methyl-7-oxo-6,7-dihydro-1H-pyrrolo [2,3-c]pyridin-4-yl)phenoxy)phenoxy)ethoxy)piperidin-1-yl)-N-((1r, 3r)-3-(3-chloro-4-cyanophenoxy)-2,2,4,4-tetramethylcyclobutyl)pyrimidine-5-carboxamide]",< 500 nM,500 to 1500 nM
< 500 nM,500 to 1500 nM,CC(=O)N(C)c1ccc(Oc2cccc(OCCOC3CCN(c4ncc(C(=O)N[C@H]5C(C)(C)[C@H](Oc6ccc(C#N)c(Cl)c6)C5(C)C)cn4)CC3)c2)c(-c2cn(C)c(=O)c3[nH]ccc23)c1 [Compound I-58],< 500 nM,> 3000 nM
< 500 nM,500 to 1500 nM,"Cn1cc(-c2cc([N+](=O)[O-])ccc2Oc2cccc(OCCOC3CCN(c4ncc(C(=O)N[C@H]5C(C)(C)[C@H](Oc6ccc(C#N)c(Cl)c6)C5(C)C)cn4)CC3)c2)c2cc[nH]c2c1=O [Compound I-63, N-((1r, 3r)-3-(3-chloro-4-cyanophenoxy)-2,2,4,4-tetramethylcyclobutyl)-2-(4-(2-(3-(2-(6-methyl-7-oxo-6,7-dihydro-1H-pyrrolo[2,3-c]pyridin-4-yl)-4-nitrophenoxy)phenoxy)ethoxy)piperidin-1-yl)pyrimidine-5-carboxamide]",< 500 nM,> 3000 nM
< 500 nM,< 500 nM,CCS(=O)(=O)Nc1ccc(Oc2cccc(C3CN(C4CCN(c5ncc(C(=O)N[C@H]6C(C)(C)[C@H](Oc7ccc(C#N)c(Cl)c7)C6(C)C)cn5)CC4)C3)c2)c(-c2cn(C)c(=O)c3[nH]ccc23)c1 [Compound I-76],< 500 nM,1500 to 3000 nM
< 500 nM,< 500 nM,CCS(=O)(=O)Nc1ccc(Oc2cccc(C3CN(CC4CCN(c5ncc(C(=O)N[C@H]6C(C)(C)[C@H](Oc7ccc(C#N)c(Cl)c7)C6(C)C)cn5)CC4)C3)c2)c(-c2cn(C)c(=O)c3[nH]ccc23)c1 [Compound I-78],< 500 nM,< 500 nM
< 500 nM,< 500 nM,CCS(=O)(=O)Nc1ccc(Oc2cccc(N3CC(CC4CCN(c5ncc(C(=O)N[C@H]6C(C)(C)[C@H](Oc7ccc(C#N)c(Cl)c7)C6(C)C)cn5)CC4)C3)c2)c(-c2cn(C)c(=O)c3[nH]ccc23)c1 [Compound I-79],< 500 nM,500 to 1500 nM
< 500 nM,< 500 nM,CCS(=O)(=O)Nc1ccc(Oc2cccc(N3CCC(OC4CCN(c5ncc(C(=O)N[C@H]6C(C)(C)[C@H](Oc7ccc(C#N)c(Cl)c7)C6(C)C)cn5)CC4)C3)c2)c(-c2cn(C)c(=O)c3[nH]ccc23)c1 (stereo partly drawn) [Compound I-81],< 500 nM,> 3000 nM
< 500 nM,< 500 nM,CCS(=O)(=O)Nc1ccc(Oc2cccc(N3CCC(OC4CCN(c5ncc(C(=O)N[C@H]6C(C)(C)[C@H](Oc7ccc(C#N)c(Cl)c7)C6(C)C)cn5)CC4)CC3)c2)c(-c2cn(C)c(=O)c3[nH]ccc23)c1 [Compound I-82],< 500 nM,> 3000 nM
< 500 nM,500 to 1500 nM,"Cn1cc(-c2cc(N)ccc2Oc2cccc(N3CC(N4CCN(c5ncc(C(=O)N[C@H]6C(C)(C)[C@H](Oc7ccc(C#N)c(Cl)c7)C6(C)C)cn5)CC4)C3)c2)c2cc[nH]c2c1=O [Compound I-89, 2-(4-(1-(3-(4-amino-2-(6-methyl-7-oxo-6,7-dihydro-1H-pyrrolo[2,3-c]pyridin-4-yl)phenoxy)phenyl)azetidin-3-yl)piperazin-1-yl)-N-((1r, 3r)-3-(3-chloro-4-cyanophenoxy)-2,2,4,4-tetramethylcyclobutyl)pyrimidine-5-carboxamide]",< 500 nM,> 3000 nM
< 500 nM,1500 to 3000 nM,Cn1cc(-c2ccccc2Oc2cccc(OCCC3CCN(c4ncc(C(=O)N[C@H]5C(C)(C)[C@H](Oc6ccc(C#N)c(Cl)c6)C5(C)C)cn4)CC3)c2)c2cc[nH]c2c1=O [Compound I-102],< 500 nM,500 to 1500 nM
< 500 nM,1500 to 3000 nM,Cn1cc(-c2cc(N)ccc2Oc2cccc(OCCC3CCN(c4ncc(C(=O)N[C@H]5C(C)(C)[C@H](Oc6ccc(C#N)c(Cl)c6)C5(C)C)cn4)CC3)c2F)c2cc[nH]c2c1=O [Compound I-103],< 500 nM,> 3000 nM
< 500 nM,< 500 nM,CCS(=O)(=O)Cc1ccc(Oc2cccc(N3CC(N4CCN(c5ncc(C(=O)N[C@H]6C(C)(C)[C@H](Oc7ccc(C#N)c(Cl)c7)C6(C)C)cn5)CC4)C3)c2)c(-c2cn(C)c(=O)c3[nH]ccc23)c1 [Compound I-114],< 500 nM,< 500 nM
